Here are results for 19 molecules from ChEMBL document CHEMBL5576074, “[1,2,4]Triazolo[1,5-a]pyrimidine derivatives: Structure-activity relationship study leading to highly selective ENPP1 inhibitors” (Bioorg Med Chem Lett, 2024).

Assay [1] deals with T1, Autotaxin (Homo sapiens, UniProt Q13822). Briefly: Inhibition of ENPP2 (unknown origin) at 50 uM relative to control.
Assay [2] has as its target T2, Ectonucleotide pyrophosphatase/phosphodiesterase family member 3 (Homo sapiens, UniProt O14638).
T2 sequence (O14638 whole entry): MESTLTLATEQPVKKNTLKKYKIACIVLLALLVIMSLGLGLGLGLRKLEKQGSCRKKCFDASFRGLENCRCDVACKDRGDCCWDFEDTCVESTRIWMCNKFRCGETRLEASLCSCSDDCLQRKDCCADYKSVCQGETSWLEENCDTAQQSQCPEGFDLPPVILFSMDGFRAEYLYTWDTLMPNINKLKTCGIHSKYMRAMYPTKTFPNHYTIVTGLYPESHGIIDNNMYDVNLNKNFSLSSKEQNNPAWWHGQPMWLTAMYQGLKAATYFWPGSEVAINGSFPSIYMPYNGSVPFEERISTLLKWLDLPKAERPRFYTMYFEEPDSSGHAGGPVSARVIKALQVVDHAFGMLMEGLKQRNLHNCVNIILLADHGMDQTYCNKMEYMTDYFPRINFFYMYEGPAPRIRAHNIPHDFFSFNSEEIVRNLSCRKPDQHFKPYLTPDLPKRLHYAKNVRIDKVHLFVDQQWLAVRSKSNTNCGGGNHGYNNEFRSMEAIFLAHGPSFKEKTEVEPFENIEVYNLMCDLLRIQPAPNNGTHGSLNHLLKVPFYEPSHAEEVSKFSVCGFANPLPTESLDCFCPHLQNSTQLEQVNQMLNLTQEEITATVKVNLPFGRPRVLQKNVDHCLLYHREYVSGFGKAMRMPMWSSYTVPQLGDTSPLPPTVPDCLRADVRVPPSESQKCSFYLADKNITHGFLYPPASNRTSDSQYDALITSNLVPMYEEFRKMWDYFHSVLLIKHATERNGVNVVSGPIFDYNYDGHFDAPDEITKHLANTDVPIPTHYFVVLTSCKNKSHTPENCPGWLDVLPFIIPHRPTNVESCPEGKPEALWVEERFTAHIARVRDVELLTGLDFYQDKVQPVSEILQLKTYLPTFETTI
As to the kind of experiment: Inhibition of ENPP3 (unknown origin).

The target of assay [3] is T3, Ectonucleotide pyrophosphatase/phosphodiesterase family member 1 (Homo sapiens, UniProt P22413).
T3 sequence (P22413 whole entry): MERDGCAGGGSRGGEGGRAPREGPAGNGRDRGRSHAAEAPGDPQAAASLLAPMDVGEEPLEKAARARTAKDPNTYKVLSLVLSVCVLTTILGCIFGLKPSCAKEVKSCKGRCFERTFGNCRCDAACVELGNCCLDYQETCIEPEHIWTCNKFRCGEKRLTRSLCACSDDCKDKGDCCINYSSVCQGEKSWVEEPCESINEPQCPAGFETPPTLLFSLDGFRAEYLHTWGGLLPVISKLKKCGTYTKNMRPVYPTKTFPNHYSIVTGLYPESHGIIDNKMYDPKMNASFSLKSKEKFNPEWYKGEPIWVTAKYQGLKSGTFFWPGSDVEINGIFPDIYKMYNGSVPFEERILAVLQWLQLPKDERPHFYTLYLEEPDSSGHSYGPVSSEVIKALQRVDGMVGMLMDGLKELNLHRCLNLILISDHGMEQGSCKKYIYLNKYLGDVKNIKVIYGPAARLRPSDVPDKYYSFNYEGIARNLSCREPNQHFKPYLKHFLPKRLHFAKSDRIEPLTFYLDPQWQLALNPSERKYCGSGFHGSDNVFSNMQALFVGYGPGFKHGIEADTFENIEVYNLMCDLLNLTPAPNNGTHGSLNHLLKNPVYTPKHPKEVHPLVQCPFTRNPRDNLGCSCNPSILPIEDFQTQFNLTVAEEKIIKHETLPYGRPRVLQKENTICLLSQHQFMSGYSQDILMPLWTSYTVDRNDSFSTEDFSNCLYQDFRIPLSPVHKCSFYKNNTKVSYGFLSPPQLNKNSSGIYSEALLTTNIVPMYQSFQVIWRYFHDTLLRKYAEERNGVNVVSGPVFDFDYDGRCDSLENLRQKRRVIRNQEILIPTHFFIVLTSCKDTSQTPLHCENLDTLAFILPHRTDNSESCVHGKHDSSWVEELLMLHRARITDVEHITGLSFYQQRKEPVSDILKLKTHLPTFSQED
Briefly: Inhibition of ENPP1 (unknown origin).

For assay [4], the target named is T4, Glycerophosphocholine cholinephosphodiesterase ENPP6 (Homo sapiens) (UniProt Q6UWR7).
T4 sequence (whole entry): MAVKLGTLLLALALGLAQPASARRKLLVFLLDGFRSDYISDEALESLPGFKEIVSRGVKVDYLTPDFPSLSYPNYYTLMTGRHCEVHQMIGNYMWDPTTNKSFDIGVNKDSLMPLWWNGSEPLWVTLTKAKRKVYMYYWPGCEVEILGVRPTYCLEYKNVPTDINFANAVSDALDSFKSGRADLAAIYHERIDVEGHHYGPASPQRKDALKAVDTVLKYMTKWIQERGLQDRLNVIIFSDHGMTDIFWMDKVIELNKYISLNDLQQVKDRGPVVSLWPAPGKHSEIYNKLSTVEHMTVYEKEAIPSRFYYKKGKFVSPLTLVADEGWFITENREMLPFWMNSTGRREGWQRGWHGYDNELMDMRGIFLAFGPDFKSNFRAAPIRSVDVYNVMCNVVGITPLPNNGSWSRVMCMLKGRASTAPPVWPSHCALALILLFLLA
As to the kind of experiment: Inhibition of ENPP6 (unknown origin) at 50 uM relative to control.

Assay [5] has as its target T5, Glycerophosphocholine cholinephosphodiesterase ENPP6 (Homo sapiens, UniProt Q6UWR7).
T5 sequence (Q6UWR7 whole entry): T4 sequence (whole entry)
As to the kind of experiment: Inhibition of ENPP6 (unknown origin).

Assay [6] deals with T6, Ectonucleotide pyrophosphatase/phosphodiesterase family member 3 (Homo sapiens) (UniProt O14638).
T6 sequence (whole entry): T2 sequence (O14638 whole entry)
Briefly: Inhibition of ENPP3 (unknown origin) at 50 uM relative to control.

In assay [7] the target is T1, Autotaxin. Briefly: Inhibition of ENPP2 (unknown origin).

A word on the inhibition: it is the drop in the measured response relative to a control, in per cent. Read a low inhibition as a weak effect. One may read the IC50 as the concentration that inhibits the measured activity by half. Turning to `Cc1nc2ncnn2c(N(C)C)c1Cc1ccc([N+](=O)[O-])cc1`, the inhibition on Autotaxin [1] is below 1%; in assay [4] it was below 1%; in assay [6], 2.7%. Further, the IC50 is above 50 µM in assay [2], 21 µM in assay [3], above 50 µM in assay [5] and above 50 µM against Autotaxin [7].

With `COCCNc1c(Cc2ccccc2)c(C)nc2ncnn12`, the inhibition against Autotaxin [1] is below 1%; in assay [4], below 1%; in assay [6], 3.3%. In addition, the IC50 is above 50 µM in assay [2], above 30 µM in assay [3], above 50 µM in assay [5] and above 50 µM at Autotaxin [7].

For the molecule `Cc1nc2ncnn2c(N(C)C)c1Cc1ccccc1[N+](=O)[O-]`, the figures for the inhibition (against Autotaxin [1]; in assay [4]; in assay [6]) were 4.7%, below 1% and 6.8%, respectively. In addition, the IC50 is above 50 µM in assay [2], 3.1 µM in assay [3], above 50 µM in assay [5] and above 50 µM at Autotaxin [7].

Consider `Cc1nc2ncnn2c(NCCO)c1Cc1ccccc1`, for which the figures for the inhibition (against Autotaxin [1]; in assay [4]; in assay [6]) were below 1%, below 1% and 4.3%, respectively. For the same molecule, the IC50 in assay [2] is above 50 µM; in assay [3], above 30 µM; in assay [5] it was above 50 µM; against Autotaxin [7], above 50 µM.

With `Cc1cc(O)n2ncnc2n1`, the inhibition on Autotaxin [1] is below 1%; in assay [4], 2.1%; in assay [6], 5.1%. Besides, the IC50 was above 50 µM in assay [2], above 30 µM in assay [3], above 50 µM in assay [5] and above 50 µM at Autotaxin [7].

Turning to `Cc1nc2nc(SCC(=O)O)nn2c(N(C)C)c1Cc1ccccc1`, the inhibition (at Autotaxin [1]; in assay [4]; in assay [6]) was below 1% throughout. The IC50 in assay [2] was above 50 µM; in assay [3], above 30 µM; in assay [5], above 50 µM; on Autotaxin [7] it was above 50 µM.

Take `Cc1nc2ncnn2c(N(C)C)c1Cc1ccccc1Cl`: the inhibition against Autotaxin [1] was 15%; in assay [4] it was below 1%; in assay [6], 3%. Also, the IC50 in assay [2] is above 50 µM; in assay [3] it was 2.5 µM; in assay [5], above 50 µM; against Autotaxin [7], above 50 µM.

For `Cc1nc2ncnn2c(NCc2cccnc2)c1Cc1cccc(N)c1`, the inhibition against Autotaxin [1] is below 1%; in assay [4], below 1%; in assay [6], 12%. The IC50 is above 50 µM in assay [2], 7 µM in assay [3], above 50 µM in assay [5] and above 50 µM against Autotaxin [7].

As to `Cc1nc2ncnn2c(N(C)C)c1Cc1cccc([N+](=O)[O-])c1`, the results for the inhibition (against Autotaxin [1]; in assay [4]; in assay [6]) were 11%, below 1% and 4.3%, respectively. For the same molecule, the IC50 is above 50 µM in assay [2], 3.6 µM in assay [3], above 50 µM in assay [5] and above 50 µM against Autotaxin [7].

For the molecule `CCNc1c(Cc2ccccc2)c(C)nc2ncnn12`, the inhibition was 7.8% against Autotaxin [1], below 1% in assay [4] and 7% in assay [6]. Also, the IC50 was above 50 µM in assay [2], 22 µM in assay [3], above 50 µM in assay [5] and above 50 µM against Autotaxin [7].

For the molecule `Cc1nc2ncnn2c(N(C)C)c1CCc1ccccc1`, the values for the inhibition (against Autotaxin [1]; in assay [4]; in assay [6]) were below 1%, below 1% and 3.6%, respectively. The IC50 is above 50 µM in assay [2], 23 µM in assay [3], above 50 µM in assay [5] and above 50 µM on Autotaxin [7].

As to `C#CCNc1c(Cc2ccccc2)c(C)nc2ncnn12`, the inhibition on Autotaxin [1] was 1.4%; in assay [4] it was below 1%; in assay [6], 24%. Moreover, the IC50 was above 50 µM in assay [2], above 30 µM in assay [3], above 50 µM in assay [5] and above 50 µM against Autotaxin [7].

For `Cc1nc2ncnn2c(NCc2ccccc2)c1Cc1cccc(N)c1`, the inhibition on Autotaxin [1] is below 1%; in assay [4], below 1%; in assay [6], 11%. For the same molecule, the IC50 is above 50 µM in assay [2], 9 µM in assay [3], above 50 µM in assay [5] and above 50 µM against Autotaxin [7].

Turning to `Cc1nc2ncnn2c(N(C)C)c1Cc1ccc(Cl)cc1`, the inhibition turned out to be 4.9% against Autotaxin [1], 2% in assay [4] and 1.5% in assay [6]. In addition, the IC50 in assay [2] was above 50 µM; in assay [3] it was 5.7 µM; in assay [5], above 50 µM; against Autotaxin [7], above 50 µM.

As for `CCN(CC)c1c(Cc2ccccc2)c(C)nc2ncnn12`, the inhibition is 1.9% against Autotaxin [1], below 1% in assay [4] and below 1% in assay [6]. Also, the IC50 was above 50 µM in assay [2], above 30 µM in assay [3], above 50 µM in assay [5] and above 50 µM against Autotaxin [7].

In the case of `COc1cccc(Cc2c(C)nc3ncnn3c2N(C)C)c1`, the inhibition is 31% against Autotaxin [1], below 1% in assay [4] and 6.5% in assay [6]. Moreover, the IC50 in assay [2] is above 50 µM; in assay [3], 1.6 µM; in assay [5] it was above 50 µM; against Autotaxin [7], above 50 µM.

Consider `CNc1c(Cc2ccccc2)c(C)nc2ncnn12`, for which the inhibition against Autotaxin [1] is below 1%; in assay [4], below 1%; in assay [6], 10%. The IC50 was above 50 µM in assay [2], above 30 µM in assay [3], above 50 µM in assay [5] and above 50 µM on Autotaxin [7].

Take `Cc1nc2ncnn2c(O)c1Cc1ccccc1`: the inhibition was below 1% on Autotaxin [1], below 1% in assay [4] and 2.4% in assay [6]. Also, the IC50 in assay [2] was above 50 µM; in assay [3], above 30 µM; in assay [5], above 50 µM; against Autotaxin [7], above 50 µM.

Consider `Cc1nc2ncnn2c(NCCCCC(=O)O)c1Cc1cccc(N)c1`, for which the inhibition is 27% at Autotaxin [1], 3.5% in assay [4] and 22% in assay [6]. Further, the IC50 in assay [2] was above 50 µM; in assay [3] it was 3.6 µM; in assay [5] it was above 50 µM; against Autotaxin [7], above 50 µM.
